Active and inactive are the calls of the source. The rule behind the calls is not given here.
Legend:
Cholinesterase = Cholinesterase (Equus caballus, UniProt P81908)
Description: Inhibition of equine serum butyrylcholinesterase using butyrylthiocholine chloride as substrate preincubated for 15 mins followed by substrate addition by Ellman's method

Acetylcholinesterase [1] = target: Acetylcholinesterase (Homo sapiens, UniProt P22303); experiment: Inhibition of human erythrocyte acetylcholinesterase using acetylthiocholine chloride as substrate preincubated for 15 mins followed by substrate addition by Ellman's method
Acetylcholinesterase [2] = target: Acetylcholinesterase (Electrophorus electricus, UniProt O42275)
Acetylcholinesterase (Electrophorus electricus, UniProt O42275), sequence (O42275 whole entry): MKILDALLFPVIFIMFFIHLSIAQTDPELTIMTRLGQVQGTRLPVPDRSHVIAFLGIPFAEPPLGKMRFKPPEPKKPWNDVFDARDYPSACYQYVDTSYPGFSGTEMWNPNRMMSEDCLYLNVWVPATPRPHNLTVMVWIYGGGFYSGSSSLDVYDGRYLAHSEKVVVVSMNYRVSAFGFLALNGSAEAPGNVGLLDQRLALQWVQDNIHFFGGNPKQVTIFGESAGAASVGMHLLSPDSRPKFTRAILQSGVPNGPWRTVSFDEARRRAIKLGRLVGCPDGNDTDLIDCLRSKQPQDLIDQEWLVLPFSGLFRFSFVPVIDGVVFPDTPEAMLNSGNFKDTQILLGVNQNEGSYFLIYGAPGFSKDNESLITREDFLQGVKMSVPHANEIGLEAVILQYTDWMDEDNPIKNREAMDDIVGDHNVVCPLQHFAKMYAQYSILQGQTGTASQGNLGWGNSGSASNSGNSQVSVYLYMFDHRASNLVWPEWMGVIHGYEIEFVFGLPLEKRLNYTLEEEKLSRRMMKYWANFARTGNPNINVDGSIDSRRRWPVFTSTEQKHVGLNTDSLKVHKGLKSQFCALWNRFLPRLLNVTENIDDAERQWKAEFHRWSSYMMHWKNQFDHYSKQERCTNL
Description: Inhibition of electric eel acetylcholinesterase using acetylthiocholine chloride as substrate preincubated for 15 mins followed by substrate addition by Ellman's method

[3] = GPx-like activity of the compound using GSH/variable H2O2 as substrate by Lineweaver-burk plot analysis; type: physicochemical
[4] = GPx-like activity of the compound using variable GSH/H2O2 as substrate assessed as catalytic efficiency by Lineweaver-burk plot analysis; type: physicochemical
[5] = GPx-like activity of the compound using 4 mM GSH/H2O2 as substrate assessed as GSH-mediated H2O2 reduction at 80 uM at pH 7.5 measured for 10 secs by spectrophotometric analysis; type: physicochemical; conditions: pH 7.5, 10 s
[6] = GPx-like activity of the compound using 2 mM GSH/H2O2 as substrate assessed as GSH-mediated H2O2 reduction at 80 uM at pH 7.5 measured for 10 secs by spectrophotometric analysis; type: physicochemical; conditions: pH 7.5, 10 s
[7] = GPx-like activity of the compound using variable GSH/H2O2 as substrate by Lineweaver-burk plot analysis; type: physicochemical
[8] = GPx-like activity of the compound using 3 mM GSH/H2O2 as substrate assessed as GSH-mediated H2O2 reduction at 80 uM at pH 7.5 measured for 10 secs by spectrophotometric analysis; type: physicochemical; conditions: pH 7.5, 10 s
[9] = GPx-like activity of the compound using GSH/1.4 mM H2O2 as substrate assessed as GSH-mediated H2O2 reduction at 80 uM at pH 7.5 measured for 10 secs by spectrophotometric analysis; type: physicochemical; conditions: pH 7.5, 10 s
[10] = GPx-like activity of the compound using GSH/0.8 mM H2O2 as substrate assessed as GSH-mediated H2O2 reduction at 80 uM at pH 7.5 measured for 10 secs by spectrophotometric analysis; type: physicochemical; conditions: pH 7.5, 10 s
[11] = GPx-like activity of the compound using GSH/1.2 mM H2O2 as substrate assessed as GSH-mediated H2O2 reduction at 80 uM at pH 7.5 measured for 10 secs by spectrophotometric analysis; type: physicochemical; conditions: pH 7.5, 10 s
[12] = GPx-like activity of the compound using 1.5 mM GSH/H2O2 as substrate assessed as GSH-mediated H2O2 reduction at 80 uM at pH 7.5 measured for 10 secs by spectrophotometric analysis; type: physicochemical; conditions: pH 7.5, 10 s
[13] = Antioxidant activity assessed as H2O2 scavenging activity at 50 to 200 uM after 10 hrs by ferrous ion oxidation-xylenol orange assay; type: functional
[14] = GPx-like activity of the compound using GSH/1.6 mM H2O2 as substrate assessed as GSH-mediated H2O2 reduction at 80 uM at pH 7.5 measured for 10 secs by spectrophotometric analysis; type: physicochemical; conditions: pH 7.5, 10 s
[15] = GPx-like activity of the compound using GSH/1 mM H2O2 as substrate assessed as GSH-mediated H2O2 reduction at 80 uM at pH 7.5 measured for 10 secs by spectrophotometric analysis; type: physicochemical; conditions: pH 7.5, 10 s
[16] = GPx-like activity of the compound using GSH/variable H2O2 as substrate assessed as catalytic efficiency by Lineweaver-burk plot analysis; type: physicochemical
[17] = GPx-like activity of the compound using 1 mM GSH/H2O2 as substrate assessed as GSH-mediated H2O2 reduction at 80 uM at pH 7.5 measured for 10 secs by spectrophotometric analysis; type: physicochemical; conditions: pH 7.5, 10 s

Acetylcholinesterase (Homo sapiens, UniProt P22303), sequence (P22303 whole entry): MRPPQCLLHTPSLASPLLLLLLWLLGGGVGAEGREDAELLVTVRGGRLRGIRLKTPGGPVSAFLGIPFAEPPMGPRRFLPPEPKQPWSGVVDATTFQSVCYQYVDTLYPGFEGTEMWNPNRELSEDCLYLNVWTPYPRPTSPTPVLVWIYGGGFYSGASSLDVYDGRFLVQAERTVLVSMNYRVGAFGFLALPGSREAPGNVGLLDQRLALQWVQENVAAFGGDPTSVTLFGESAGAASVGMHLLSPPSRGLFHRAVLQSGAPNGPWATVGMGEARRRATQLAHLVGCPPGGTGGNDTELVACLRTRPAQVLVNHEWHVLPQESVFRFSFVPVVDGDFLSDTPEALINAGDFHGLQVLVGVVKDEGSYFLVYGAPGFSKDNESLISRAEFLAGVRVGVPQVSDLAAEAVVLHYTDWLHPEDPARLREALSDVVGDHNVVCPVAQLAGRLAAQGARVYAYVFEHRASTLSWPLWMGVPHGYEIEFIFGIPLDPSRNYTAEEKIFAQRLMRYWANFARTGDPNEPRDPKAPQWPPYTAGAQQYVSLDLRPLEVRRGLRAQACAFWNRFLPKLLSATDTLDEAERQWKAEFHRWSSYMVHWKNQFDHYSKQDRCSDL
Cholinesterase, sequence (P81908 whole entry): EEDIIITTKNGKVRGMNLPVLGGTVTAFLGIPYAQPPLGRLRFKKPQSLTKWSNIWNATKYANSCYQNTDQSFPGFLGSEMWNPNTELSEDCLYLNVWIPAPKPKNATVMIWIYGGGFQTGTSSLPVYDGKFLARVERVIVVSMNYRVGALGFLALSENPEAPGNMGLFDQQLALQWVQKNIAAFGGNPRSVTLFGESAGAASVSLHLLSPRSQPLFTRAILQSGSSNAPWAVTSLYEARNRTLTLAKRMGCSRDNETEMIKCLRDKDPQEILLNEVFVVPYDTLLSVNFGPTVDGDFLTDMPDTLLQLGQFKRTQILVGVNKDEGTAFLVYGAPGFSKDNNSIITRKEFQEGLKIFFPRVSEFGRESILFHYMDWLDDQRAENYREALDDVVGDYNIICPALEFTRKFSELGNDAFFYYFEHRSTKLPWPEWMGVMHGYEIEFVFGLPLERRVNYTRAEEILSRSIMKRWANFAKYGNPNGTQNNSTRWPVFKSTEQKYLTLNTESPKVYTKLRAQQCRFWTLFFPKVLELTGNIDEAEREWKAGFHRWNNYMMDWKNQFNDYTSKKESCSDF

SMILES | IC50 (Cholinesterase) [µM] | IC50 (Acetylcholinesterase [1]) [µM] | IC50 (Acetylcholinesterase [2]) [µM] | Kcat [3] [s⁻¹] | Vmax [3] [µM/min] | Activity [4] [mM⁻¹ min⁻¹] | Activity [5] [µM/min] | Activity [6] [µM/min] | Kcat [7] [s⁻¹] | Vmax [7] [µM/min] | Activity [8] [µM/min] | Activity [9] [µM/min] | Activity [10] [µM/min] | Activity [11] [µM/min] | Activity [12] [µM/min] | Activity [13] | Activity [14] [µM/min] | Activity [15] [µM/min] | Activity [16] [mM⁻¹ min⁻¹] | Activity [17] [µM/min]
COc1cc2[se]n(-c3ccc(OCCCN4CCCCC4)cc3)c(=O)c2cc1OC | 5.8 | 5.15 | 4.5 | – | – | – | – | – | – | – | – | – | – | – | – | – | – | – | – | –
COc1cc2[se]n(-c3ccc(CN4CCCCC4)cc3)c(=O)c2cc1OC | > 15 | 1.44 | 0.76 | 0.1812 | 869.57 | 1.63 | 185.66 | 147.84 | 0.0643 | 308.64 | 166.44 | 132.29 | 81.43 | 121.72 | 130.27 | Active | 150.53 | 109.44 | 1.45 | 88.35
COc1cc2[se]n(-c3ccc(OCCN4CCCCC4)cc3)c(=O)c2cc1OC | 9.69 | 0.45 | 0.46 | 0.066 | 316.46 | 1.4 | 164.86 | 126.72 | 0.0577 | 276.24 | 150.13 | 109.83 | 53.36 | 98.87 | 110.89 | Active | 122.64 | 76.93 | 0.74 | 77.43
COc1cc2[se]n(-c3ccc(CCN4CCCC4)cc3)c(=O)c2cc1OC | > 15 | 13.9 | 4.32 | – | – | – | – | – | – | – | – | – | – | – | – | – | – | – | – | –
COc1cc2[se]n(-c3ccc(CN(C)Cc4ccccc4)cc3)c(=O)c2cc1OC | 3.62 | > 15 | 1.71 | – | – | – | – | – | – | – | – | – | – | – | – | – | – | – | – | –
O=c1c2ccccc2[se]n1-c1ccc(CCN2CCCC2)cc1 | 6.38 | > 15 | > 15 | – | – | – | – | – | – | – | – | – | – | – | – | – | – | – | – | –
O=c1c2ccccc2[se]n1-c1ccc(CN2CCCCC2)cc1 | 5.56 | 10.8 | 2.36 | – | – | – | – | – | – | – | – | – | – | – | – | – | – | – | – | –
COc1cc2[se]n(-c3ccc(CN4CCCC4)cc3)c(=O)c2cc1OC | 13.4 | 4.31 | 1.06 | – | – | – | – | – | – | – | – | – | – | – | – | – | – | – | – | –
COc1cc2[se]n(-c3ccc(OCCCCN4CCCCC4)cc3)c(=O)c2cc1OC | 5.72 | 3.41 | 4.32 | – | – | – | – | – | – | – | – | – | – | – | – | – | – | – | – | –
O=c1c2ccccc2[se]n1-c1ccc(OCCN2CCCCC2)cc1 | 1.97 | 10.9 | 5.66 | – | – | – | – | – | – | – | – | – | – | – | – | – | – | – | – | –
COc1cc2[se]n(-c3ccc(CCN4CCCCC4)cc3)c(=O)c2cc1OC | > 15 | 10.5 | 3.87 | – | – | – | – | – | – | – | – | – | – | – | – | – | – | – | – | –
O=c1c2ccccc2[se]n1-c1ccccc1 [EBSELEN] | 10.6 | > 15 | > 15 | 0.0393 | 188.68 | 1.64 | 183.19 | 152.18 | 0.0642 | 307.69 | 166.44 | 119.01 | 92.43 | 107.82 | 130.27 | Active | 125.93 | 105.89 | 2.85 | 88.35
